TGI data for 13 compounds are collected here from PubChem BioAssay (NCI).

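Test compounds were applied to cells in 96-well plates for 48 hours at 5 doses. TGI is the concentration that stops growth completely.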 Some results are limits rather than exact numbers.

Test systems include HOP-92 NSCLC; HCC-2998 colon; EKVX NSCLC; A549 NSCLC; K-562 leukemia; PC-3 prostate; BT-549 breast; SNB-75 CNS; OVCAR-5 ovarian; OVCAR-4 ovarian.
Test in all cases: DTP human tumour cell line panel, 48 h

Consider `O=C(O)C1(Cc2ccc3c(c2)CCC3)Cc2cc3c(cc2C1)CCC3`, for which the total growth inhibition concentration (TGI) in the assay with HOP-92 NSCLC, in the assay with HCC-2998 colon, with EKVX NSCLC, with A549 NSCLC, in the assay on K-562 leukemia and in the assay with PC-3 prostate was above 100 µM each time. In addition, the TGI in the assay on BT-549 breast, in the assay with SNB-75 CNS, with OVCAR-5 ovarian and with OVCAR-4 ovarian was above 100 µM each time.

In the case of `CNc1ccc([N+](=O)[O-])cc1C(=O)N1CCC[C@H]1CO`, the TGI with HOP-92 NSCLC, in the assay with HCC-2998 colon, with EKVX NSCLC, in the assay on A549 NSCLC, in the assay with K-562 leukemia and in the assay on PC-3 prostate was above 100 µM in each case. Besides, the TGI with BT-549 breast, in the assay with SNB-75 CNS, in the assay on OVCAR-5 ovarian and in the assay with OVCAR-4 ovarian was above 100 µM each time.

`Cn1cnc([N+](=O)[O-])c1Sc1nncc2[nH]cnc12`: the TGI with HOP-92 NSCLC, in the assay with HCC-2998 colon, with EKVX NSCLC, in the assay with A549 NSCLC, with K-562 leukemia and with PC-3 prostate was above 100 µM in each case. Also, the concentration for total growth inhibition (TGI) in the assay with BT-549 breast, in the assay on SNB-75 CNS, in the assay on OVCAR-5 ovarian and in the assay on OVCAR-4 ovarian was above 100 µM throughout.

For the compound `COc1cc2c(cc1OCc1ccccc1)NC(=O)[C@@H]1C[C@@H](O)CN1C2=O`, the TGI in the assay with HOP-92 NSCLC, in the assay on HCC-2998 colon, in the assay on EKVX NSCLC, in the assay on A549 NSCLC, in the assay with K-562 leukemia and in the assay with PC-3 prostate was above 100 µM in each case. In addition, the TGI in the assay on BT-549 breast, with SNB-75 CNS, in the assay with OVCAR-5 ovarian and in the assay with OVCAR-4 ovarian was above 100 µM throughout.

Turning to `COC(=O)C1CC(C=O)=C(SC)N1` (stereo not given), the TGI in the assay on HOP-92 NSCLC, in the assay with HCC-2998 colon, with EKVX NSCLC, with A549 NSCLC, in the assay with K-562 leukemia and in the assay on PC-3 prostate was above 50 µM each time. For the same compound, the concentration for total growth inhibition (TGI) with BT-549 breast, in the assay on SNB-75 CNS, with OVCAR-5 ovarian and in the assay on OVCAR-4 ovarian was above 50 µM throughout.

In the case of `C=C(Cl)C(=C)CCC(Cl)C(C)(C)Cl` (stereo not given), the TGI with HOP-92 NSCLC, with HCC-2998 colon, in the assay with EKVX NSCLC, with A549 NSCLC, with K-562 leukemia and in the assay with PC-3 prostate was above 100 µM in each case. Besides, the TGI with BT-549 breast, in the assay with SNB-75 CNS, in the assay on OVCAR-5 ovarian and with OVCAR-4 ovarian was above 100 µM in each case.

Consider `COc1cc(/C=C/C=C2\CC(C)C/C(=C\C=C\c3ccc(O)c(OC)c3)C2=O)ccc1O` (stereo not given), for which the TGI in the assay on HOP-92 NSCLC was 23.4 µM; in the assay with HCC-2998 colon it was above 100 µM; with EKVX NSCLC it was above 100 µM; in the assay with A549 NSCLC, above 100 µM; with K-562 leukemia, above 100 µM; in the assay with PC-3 prostate, 48.8 µM. Besides, the TGI stood at 27.3 µM with BT-549 breast, 32.3 µM in the assay on SNB-75 CNS, 28.8 µM with OVCAR-5 ovarian and 39.9 µM in the assay on OVCAR-4 ovarian.

Regarding `Cc1cc(C(C)(C)C)c(OCCCN2CCOCC2)c(C(C)(C)C)c1`, the TGI in the assay on HOP-92 NSCLC came to 35 µM; in the assay with HCC-2998 colon, 30.3 µM; in the assay on EKVX NSCLC, 32.5 µM; with A549 NSCLC, 32.5 µM; with K-562 leukemia it was 33.3 µM; with PC-3 prostate it was 29.9 µM. Besides, the TGI with BT-549 breast stood at 31.9 µM; with SNB-75 CNS, 32.6 µM; in the assay with OVCAR-5 ovarian, 33 µM; in the assay with OVCAR-4 ovarian, 31.5 µM.

Regarding `O=c1c2cc(Cl)ccc2n2nnc3ccc(NCCNCCO)c1c32`, the total growth inhibition concentration (TGI) in the assay with HOP-92 NSCLC was 6.1 µM; with HCC-2998 colon, 2.7 µM; with EKVX NSCLC, 4.44 µM; in the assay on A549 NSCLC it was 2.58 µM; in the assay on K-562 leukemia it was 10.9 µM; with PC-3 prostate, 2.75 µM. In addition, the TGI is 5.22 µM in the assay on BT-549 breast, 0.286 µM in the assay on SNB-75 CNS, 3.42 µM in the assay with OVCAR-5 ovarian and 2.52 µM in the assay on OVCAR-4 ovarian.

Regarding `CCOC(=O)C1C2C1C1C(C(=O)OCC)C21` (stereo not given), the TGI in the assay on HOP-92 NSCLC, in the assay on HCC-2998 colon, with EKVX NSCLC, with A549 NSCLC, with K-562 leukemia and with PC-3 prostate was above 100 µM throughout. The TGI in the assay on BT-549 breast, with SNB-75 CNS, with OVCAR-5 ovarian and in the assay with OVCAR-4 ovarian was above 100 µM each time.

As for `O=[N+]([O-])c1ccc(-c2nc3ccccc3o2)cc1`, the TGI with HOP-92 NSCLC, with HCC-2998 colon, with EKVX NSCLC, in the assay with A549 NSCLC, in the assay with K-562 leukemia and with PC-3 prostate was above 100 µM throughout. The TGI with BT-549 breast, in the assay on SNB-75 CNS, with OVCAR-5 ovarian and in the assay on OVCAR-4 ovarian was above 100 µM each time.

For the compound `COc1cc(/C=C2\N=C(c3ccccc3)N(c3ccc(C(=O)c4ccccc4)cc3N3C(=O)/C(=C/c4cc(OC)c(OC)c(OC)c4)N=C3c3ccccc3)C2=O)cc(OC)c1OC`, the total growth inhibition concentration (TGI) in the assay on HOP-92 NSCLC was above 100 µM; in the assay on HCC-2998 colon, 11.2 µM; in the assay on EKVX NSCLC it was 76.7 µM; with A549 NSCLC it was 71.6 µM; with K-562 leukemia it was 68.7 µM; with PC-3 prostate it was 46 µM. In addition, the TGI in the assay with BT-549 breast is 66.4 µM; with SNB-75 CNS it was 35.6 µM; in the assay with OVCAR-5 ovarian, above 100 µM; in the assay on OVCAR-4 ovarian, above 100 µM.

As for `CC1=C(C(=O)OC(C)C)C(c2cccc([N+](=O)[O-])c2)C(C(=O)OC(CO[N+](=O)[O-])CO[N+](=O)[O-])=C(C)N1` (stereo not given), the TGI in the assay on HOP-92 NSCLC is 7.38 µM; in the assay with HCC-2998 colon, 18.3 µM; in the assay on EKVX NSCLC, above 27.7 µM; in the assay with A549 NSCLC, above 100 µM; with K-562 leukemia it was above 100 µM; with PC-3 prostate, above 32.6 µM. Also, the TGI with BT-549 breast amounted to 14.7 µM; with SNB-75 CNS, 43.3 µM; in the assay on OVCAR-5 ovarian, 21.5 µM; with OVCAR-4 ovarian it was 20.9 µM.
